Molecular target: T1, Tyw1 30-251 (Schizosaccharomyces japonicus, UniProt B6K6D6)
T1 construct: flavodoxin-like domain with N-terminal extension, residues 30-251; N-terminal TRX-6His or MBP-6His tag with TEV site, tag cleaved; E. coli KRX; monomer; calculated mass 24940 Da, MS 25010 Da
T1 sequence (B6K6D6 30-251): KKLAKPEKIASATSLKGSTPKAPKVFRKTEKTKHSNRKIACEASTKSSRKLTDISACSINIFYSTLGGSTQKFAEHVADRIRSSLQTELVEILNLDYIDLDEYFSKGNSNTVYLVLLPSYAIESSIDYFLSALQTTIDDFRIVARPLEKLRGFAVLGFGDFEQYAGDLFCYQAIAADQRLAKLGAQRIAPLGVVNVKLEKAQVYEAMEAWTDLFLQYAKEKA
Test: X-ray crystal structure (molecular replacement, […] A)
Assay type: binding
Settings: co-purified oxidized FMN; crystals pH 8.5, 288 K; unit occupancy

Structure (SMILES): Cc1cc2nc3c(=O)[nH]c(=O)nc-3n(C[C@H](O)[C@H](O)[C@H](O)COP(=O)(O)O)c2cc1C [FMN]
- X-ray crystal structure (molecular replacement, 1.5 A): FMN density was strong and was modeled with unit occupancy in both structures.

Reference: paper PMC9186531, “Biochemical and structural characterization of the flavodoxin-like domain of the Schizosaccharomyces japonicus putative tRNA ^Phe 4-demethylwyosine synthase Tyw1 in complex with FMN” (microPublication Biology, 2022)
